Measurements published in ChEMBL document CHEMBL4483862, “Open-source discovery of chemical leads for next-generation chemoprotective antimalarials” (2018).

System: Plasmodium berghei
Assay: Luciferase/luciferin-expressing antifolate-resistant parasites were used to infect a culture of HepG2 cells that were pre-incubated with compounds. Infected hepatocytes emit light due to the luciferase reaction. Assay results are presented as the percent inhibition of light emission compared to control. […]
Format: functional
Conditions: sporozoite; for IC90: read-out: LUCIFERASE INFECTION ASSAY - IC90

Row | SMILES | IC90 [µM] | also measured
1 | N#Cc1c(SCc2ccccc2)nc2c(c1-c1cccs1)CCCC2 | > 9.1 | IC50 (FFLUC_HILL_SLOPE 16.1, FFLUC_R_SQUARED 0.0835, PBLUC_HILL_SLOPE 1.89, PBLUC_R_SQUARED 0.544, read-out: LUCIFERASE INFECTION ASSAY - IC50): 3.48 µM
2 | Cc1cc(C)cc(NC(=O)CCN2c3ccccc3Sc3ccccc32)c1 | > 10 | IC50 (FFLUC_HILL_SLOPE 15.9, FFLUC_R_SQUARED 0.234, read-out: LUCIFERASE INFECTION ASSAY - IC50): > 10 µM
3 | O=C(NC(=O)c1csnn1)Nc1cc(C(F)(F)F)cc(C(F)(F)F)c1 | 2.08 | IC50 (FFLUC_HILL_SLOPE 15.9, FFLUC_R_SQUARED 0.485, HEPG2TOX_HILL_SLOPE 1.3, HEPG2TOX_R_SQUARED 0.92, PBLUC_HILL_SLOPE 2.07, PBLUC_R_SQUARED 0.679, read-out: LUCIFERASE INFECTION ASSAY - IC50): 0.72 µM
4 | CN(Cc1cccc(Cl)c1Cl)C(C(=O)Nc1ccc(Cl)c(C(F)(F)F)c1)c1ccccc1 (stereo not drawn) | > 10 | IC50 (FFLUC_HILL_SLOPE 15.8, FFLUC_R_SQUARED 0.442, HEPG2TOX_HILL_SLOPE 1.06, HEPG2TOX_R_SQUARED 0.598, PBLUC_HILL_SLOPE 0.733, PBLUC_R_SQUARED 0.344, read-out: LUCIFERASE INFECTION ASSAY - IC50): 7.46 µM
5 | Cc1ccc(/C=C/C(=O)NC2CCCc3ccccc32)o1 (stereo not drawn) | > 10 | IC50 (FFLUC_HILL_SLOPE 16.2, FFLUC_R_SQUARED 0.0896, read-out: LUCIFERASE INFECTION ASSAY - IC50): > 10 µM
6 | Cc1cc(/C=N/Nc2ccc(Cl)nn2)c(C)n1-c1ccccc1Cl | 9.4 | IC50 (FFLUC_HILL_SLOPE 16.1, FFLUC_R_SQUARED 0.664, PBLUC_HILL_SLOPE 12.5, PBLUC_R_SQUARED 0.559, read-out: LUCIFERASE INFECTION ASSAY - IC50): 7.88 µM
7 | CC(C)(C)NC(=S)N/N=C/c1ncc(C(F)(F)F)cc1Sc1ccc(Cl)cc1 | 4.33 | IC50 (FFLUC_HILL_SLOPE 15.8, FFLUC_R_SQUARED 0.683, HEPG2TOX_HILL_SLOPE 2.2, HEPG2TOX_R_SQUARED 0.982, PBLUC_HILL_SLOPE 3.41, PBLUC_R_SQUARED 0.827, read-out: LUCIFERASE INFECTION ASSAY - IC50): 2.27 µM
8 | Cc1cc(C(=O)CSc2nnc(Cc3cccc4ccccc34)n2C2CCCCC2)c(C)n1CC(F)(F)F | > 10 | IC50 (FFLUC_HILL_SLOPE 15.7, FFLUC_R_SQUARED 0.514, PBLUC_HILL_SLOPE 7.31, PBLUC_R_SQUARED 0.494, read-out: LUCIFERASE INFECTION ASSAY - IC50): 8.44 µM
9 | C#CCOc1ccccc1/C=C(\C#N)c1nc(N)nc(Nc2ccccc2)n1 | > 10 | IC50 (FFLUC_HILL_SLOPE 15.9, FFLUC_R_SQUARED 0.0727, HEPG2TOX_HILL_SLOPE 1.54, HEPG2TOX_R_SQUARED 0.555, PBLUC_HILL_SLOPE 1.18, PBLUC_R_SQUARED 0.297, read-out: LUCIFERASE INFECTION ASSAY - IC50): > 10 µM
10 | CC(C)(C)c1cc(C(=O)OCC(=O)NC(c2ccccc2)c2ccccc2)cc(C(C)(C)C)c1 | > 10 | IC50 (FFLUC_HILL_SLOPE 15.9, FFLUC_R_SQUARED 0.274, HEPG2TOX_HILL_SLOPE 1.64, HEPG2TOX_R_SQUARED 0.592, PBLUC_HILL_SLOPE 2.07, PBLUC_R_SQUARED 0.325, read-out: LUCIFERASE INFECTION ASSAY - IC50): 7.82 µM
11 | CCOc1ccc(NC(=S)N/N=C2/C(=O)c3cccc4cccc2c34)cc1 | > 10 | IC50 (FFLUC_HILL_SLOPE 16.1, FFLUC_R_SQUARED 0.465, PBLUC_HILL_SLOPE 2.76, PBLUC_R_SQUARED 0.814, read-out: LUCIFERASE INFECTION ASSAY - IC50): 4.61 µM
12 | CCN(CC)c1ccc(N=C2C=CC(=O)c3ccccc32)c(C)c1 | 4.59 | IC50 (FFLUC_HILL_SLOPE 15.8, FFLUC_R_SQUARED 0.584, HEPG2TOX_HILL_SLOPE 2.04, HEPG2TOX_R_SQUARED 0.961, PBLUC_HILL_SLOPE 2.09, PBLUC_R_SQUARED 0.781, read-out: LUCIFERASE INFECTION ASSAY - IC50): 1.61 µM
13 | CSc1nnc(-c2ccc(C(C)(C)C)cc2)[nH]1 | 10.9 | IC50 (FFLUC_HILL_SLOPE 15.7, FFLUC_R_SQUARED 0.752, PBLUC_HILL_SLOPE 2.05, PBLUC_R_SQUARED 0.759, read-out: LUCIFERASE INFECTION ASSAY - IC50): 3.73 µM
14 | Cn1c(C(C#N)c2nc(C#N)c(C#N)nc2Cl)nc2ccccc21 (stereo not drawn) | > 10 | IC50 (FFLUC_HILL_SLOPE 16, FFLUC_R_SQUARED 0.432, read-out: LUCIFERASE INFECTION ASSAY - IC50): > 10 µM
15 | Cc1sc2ncn(CC(=O)NC(c3ccc(F)cc3)c3cccs3)c(=O)c2c1-c1ccccc1 (stereo not drawn) | 9.83 | IC50 (FFLUC_HILL_SLOPE 15.7, FFLUC_R_SQUARED 0.526, PBLUC_HILL_SLOPE 17, PBLUC_R_SQUARED 0.112, read-out: LUCIFERASE INFECTION ASSAY - IC50): 8.64 µM
16 | O=c1cc(NCCC2=CCCCC2)c2ccccc2o1 | 3.21 | IC50 (FFLUC_HILL_SLOPE 16, FFLUC_R_SQUARED 0.221, HEPG2TOX_HILL_SLOPE 2.34, HEPG2TOX_R_SQUARED 0.809, PBLUC_HILL_SLOPE 2.17, PBLUC_R_SQUARED 0.461, read-out: LUCIFERASE INFECTION ASSAY - IC50): 1.17 µM
17 | COCCNC(=O)c1ccc(C2(CNc3ccc(OC)c(OC)c3)CC2)cc1 | 1.89 | IC50 (FFLUC_HILL_SLOPE 16.1, FFLUC_R_SQUARED 0.266, PBLUC_HILL_SLOPE 1.26, PBLUC_R_SQUARED 0.621, read-out: LUCIFERASE INFECTION ASSAY - IC50): 0.332 µM
18 | O=[N+]([O-])c1cnc(Sc2nnc(-c3ccco3)n2-c2ccc(OCc3ccccc3)cc2)s1 | > 6.91 | IC50 (FFLUC_HILL_SLOPE 16.1, FFLUC_R_SQUARED 0.469, read-out: LUCIFERASE INFECTION ASSAY - IC50): > 6.91 µM
19 | Cc1cc(/C=N/Nc2ccnc3cc(Cl)ccc23)c(C)n1-c1cc(S(=O)(=O)N2CCOCC2)ccc1N1CCCC1 | > 10 | IC50 (FFLUC_HILL_SLOPE 15.8, FFLUC_R_SQUARED 0.537, PBLUC_HILL_SLOPE 3.6, PBLUC_R_SQUARED 0.465, read-out: LUCIFERASE INFECTION ASSAY - IC50): 6.84 µM
20 | CC(C)CCNC(=O)C(=Cc1ccc(Oc2ccc(C(C)(C)C)cc2)c([N+](=O)[O-])c1)C(=O)NCCC(C)C | > 10 | IC50 (FFLUC_HILL_SLOPE 15.8, FFLUC_R_SQUARED 0.198, HEPG2TOX_HILL_SLOPE 15.2, 3.81, HEPG2TOX_R_SQUARED 0.607, 0.996, PBLUC_HILL_SLOPE 2.43, PBLUC_R_SQUARED 0.694, read-out: LUCIFERASE INFECTION ASSAY - IC50): 4.43 µM
21 | Cn1nc(-c2ccccc2)c(/C=N/O)c1Sc1ccc(C(C)(C)C)cc1 | > 9.03 | IC50 (FFLUC_HILL_SLOPE 15.8, FFLUC_R_SQUARED 0.096, HEPG2TOX_HILL_SLOPE 2.21, HEPG2TOX_R_SQUARED 0.952, PBLUC_HILL_SLOPE 13.8, PBLUC_R_SQUARED 0.121, read-out: LUCIFERASE INFECTION ASSAY - IC50): 8.79 µM
22 | CCN1N=C(c2ccc(OC)cc2)c2ccc(OC)c3cccc1c23 | 8.69 | IC50 (FFLUC_HILL_SLOPE 16.1, FFLUC_R_SQUARED 0.71, HEPG2TOX_HILL_SLOPE 5.83, HEPG2TOX_R_SQUARED 0.386, PBLUC_HILL_SLOPE 3.16, PBLUC_R_SQUARED 0.408, read-out: LUCIFERASE INFECTION ASSAY - IC50): 4.33 µM
23 | Cc1nn2c(nc(NCc3ccc(Cn4ccnc4)cc3)c3ccccc32)c1Cl | > 10 | IC50 (FFLUC_HILL_SLOPE 16.1, FFLUC_R_SQUARED 0.458, read-out: LUCIFERASE INFECTION ASSAY - IC50): > 10 µM
24 | Cc1ccc(-n2c(C)cc(-c3csc(NC(=O)c4cccc(S(=O)(=O)N5CCc6ccccc65)c4)n3)c2C)cc1 | > 10 | IC50 (FFLUC_HILL_SLOPE 15.8, FFLUC_R_SQUARED 0.357, read-out: LUCIFERASE INFECTION ASSAY - IC50): > 10 µM
25 | COC(=O)c1c(C)[nH]c(C(=O)C(C)Sc2nnc(Cc3cccc4ccccc34)n2C2CCCCC2)c1C (stereo not drawn) | > 10 | IC50 (FFLUC_HILL_SLOPE 16.1, FFLUC_R_SQUARED 0.161, read-out: LUCIFERASE INFECTION ASSAY - IC50): > 10 µM
26 | Cc1ccc(C(=O)c2c(NC(=O)CSc3nc4ccccc4n3CC(C)C)sc3c2CCCC3)cc1 | > 10 | IC50 (FFLUC_HILL_SLOPE 15.8, FFLUC_R_SQUARED 0.569, HEPG2TOX_HILL_SLOPE 0.459, HEPG2TOX_R_SQUARED 0.518, PBLUC_HILL_SLOPE 11.3, PBLUC_R_SQUARED 0.271, read-out: LUCIFERASE INFECTION ASSAY - IC50): > 10 µM
27 | CCCNC(=O)c1c(NC(=O)c2ccc(C(F)(F)F)cc2)nc2ccccn12 | 0.441 | IC50 (FFLUC_HILL_SLOPE 16.1, FFLUC_R_SQUARED 0.832, HEPG2TOX_HILL_SLOPE 0.765, HEPG2TOX_R_SQUARED 0.858, PBLUC_HILL_SLOPE 8.91, PBLUC_R_SQUARED 0.524, read-out: LUCIFERASE INFECTION ASSAY - IC50): 0.344 µM
28 | COc1cc(C(=O)N/N=C2\C(=O)Nc3ccc(C(C)C)cc32)cc(OC)c1OC | > 10 | IC50 (FFLUC_HILL_SLOPE 15.7, FFLUC_R_SQUARED 0.417, HEPG2TOX_HILL_SLOPE 3.31, HEPG2TOX_R_SQUARED 0.963, PBLUC_HILL_SLOPE 2.41, PBLUC_R_SQUARED 0.374, read-out: LUCIFERASE INFECTION ASSAY - IC50): 4.85 µM
29 | Cc1cc(C(=O)C(C)OC(=O)c2ccc(S(=O)(=O)N3CC(C)CC(C)C3)cc2)c(C)n1-c1ccc(Cl)cc1 (stereo not drawn) | 3.47 | IC50 (FFLUC_HILL_SLOPE 16.1, FFLUC_R_SQUARED 0.63, HEPG2TOX_HILL_SLOPE 1.41, HEPG2TOX_R_SQUARED 0.912, PBLUC_HILL_SLOPE 53.4, PBLUC_R_SQUARED 0.359, read-out: LUCIFERASE INFECTION ASSAY - IC50): 3.33 µM
